Laboratory results: PubChem BioAssay (NCI)
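Growth conditions: 96-well plates. Treatment: test compound, 48 hours, 5 concentrations. Analysis: linear interpolation between bracketing concentrations; unreached endpoints set to highest concentration. TGI marks complete inhibition of growth.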

Legend:
Experiment in all cases: DTP human tumour cell line panel, 48 h
[1] = system: HOP-92 NSCLC
[2] = system: SK-MEL-28 melanoma
[3] = system: M14 melanoma
[4] = system: SN12C renal
[5] = system: OVCAR-4 ovarian
[6] = system: HT29 colon
[7] = system: HCC-2998 colon
[8] = system: RPMI-8226 leukemia
[9] = system: CAKI-1 renal
[10] = system: 786-0 renal
[11] = system: SF-295 CNS
[12] = system: SK-OV-3 ovarian
[13] = system: HL-60(TB) leukemia
[14] = system: NCI-H460 lung
[15] = system: CCRF-CEM leukemia
[16] = system: DMS 273 small cell lung
[17] = system: HOP-62 NSCLC
[18] = system: A498 renal
[19] = system: K-562 leukemia
[20] = system: SR leukemia
[21] = system: UACC-62 melanoma
[22] = system: XF 498 CNS
[23] = system: A549 NSCLC
[24] = system: OVCAR-5 ovarian
[25] = system: SF-539 CNS
[26] = system: SK-MEL-2 melanoma
[27] = system: KM20L2 colon
[28] = system: ACHN renal
[29] = system: SNB-75 CNS
[30] = system: UO-31 renal
[31] = system: DLD-1 colon
[32] = system: MOLT-4 leukemia
[33] = system: HOP-18 NSCLC
[34] = system: SK-MEL-5 melanoma
[35] = system: OVCAR-8 ovarian
[36] = system: LOX IMVI melanoma
[37] = system: LXFL 529 NSCLC
[38] = system: TK-10 renal
[39] = system: KM12 colon
[40] = system: NCI-H23 lung
[41] = system: EKVX NSCLC
[42] = system: U251 CNS
[43] = system: RXF 393 renal
[44] = system: SNB-78 CNS
[45] = system: IGROV1 ovarian
[46] = system: HCT-116 colon
[47] = system: DMS 114 small cell lung
[48] = system: COLO 205 colon
[49] = system: OVCAR-3 ovarian
[50] = system: HCT-15 colon
[51] = system: NCI-H226 lung
[52] = system: SF-268 CNS
[53] = system: NCI-H522 lung
[54] = system: SNB-19 CNS
[55] = system: MALME-3M melanoma
[56] = system: M19-MEL melanoma
[57] = system: UACC-257 melanoma
[58] = system: SW-620 colon
[59] = system: RXF-631 renal

Q: What does the source list for `CCOC(OC1=C(C#N)CCCC1)C(CC)[Se]c1ccccc1[N+](=O)[O-]` (configuration not stated)?
A: TGI [1]: 40.6 µM; TGI [2]: 89.9 µM; TGI [3]: 37.8 µM; TGI [4]: 42.7 µM; TGI [5]: 35.1 µM; TGI [6]: 31.4 µM; TGI [7]: 45.9 µM; TGI [8]: 43.4 µM; TGI [9]: > 100 µM; TGI [10]: 34.2 µM; TGI [11]: 47 µM; TGI [12]: > 100 µM; TGI [13]: 46.1 µM; TGI [14]: > 100 µM; TGI [15]: 49.6 µM; TGI [16]: 36.2 µM; TGI [17]: 88.8 µM; TGI [18]: > 100 µM; TGI [19]: > 100 µM; TGI [20]: 38.9 µM; TGI [21]: 47 µM; TGI [22]: 61.5 µM; TGI [23]: > 100 µM; TGI [24]: 66.8 µM; TGI [25]: 37.8 µM; TGI [26]: > 100 µM; TGI [27]: 31.4 µM; TGI [28]: 80.7 µM; TGI [29]: 49.5 µM; TGI [30]: 80.5 µM; TGI [31]: 35.6 µM; TGI [32]: 71.2 µM; TGI [33]: 74.1 µM; TGI [34]: 28.7 µM; TGI [35]: 48.7 µM; TGI [36]: 30.9 µM; TGI [37]: 89.2 µM; TGI [38]: > 100 µM; TGI [39]: 43.1 µM; TGI [40]: 31.3 µM; TGI [41]: 70 µM; TGI [42]: 30.9 µM; TGI [43]: 65.7 µM; TGI [44]: > 100 µM; TGI [45]: 72 µM; TGI [46]: 36.8 µM; TGI [47]: 30.1 µM; TGI [48]: > 100 µM; TGI [49]: 95.4 µM; TGI [50]: 37.1 µM; TGI [51]: 43 µM; TGI [52]: 43.6 µM; TGI [53]: 30.9 µM; TGI [54]: 72.5 µM; TGI [55]: > 100 µM; TGI [56]: 37.2 µM; TGI [57]: > 100 µM

Q: For `COC(=O)C(C#N)C1NC(=O)c2ccccc21` (configuration not stated), which TGI [1] is on record?
A: > 100 µM

Q: What about the TGI [2] of the same compound?
A: > 100 µM

Q: What about the TGI [3] of the same compound?
A: > 100 µM

Q: And the TGI [4]?
A: > 100 µM

Q: What about the TGI [5] of the same compound?
A: > 100 µM

Q: What about the TGI [6] of the same compound?
A: > 100 µM

Q: And the TGI [7]?
A: > 100 µM

Q: And the TGI [8]?
A: > 100 µM

Q: What about the TGI [10] of the same compound?
A: > 100 µM

Q: What about the TGI [11] of the same compound?
A: > 100 µM

Q: What about the TGI [12] of the same compound?
A: > 100 µM

Q: And the TGI [13]?
A: > 100 µM

Q: And the TGI [14]?
A: > 100 µM

Q: And the TGI [15]?
A: > 100 µM

Q: And the TGI [16]?
A: > 100 µM

Q: What about the TGI [17] of the same compound?
A: > 100 µM

Q: What about the TGI [18] of the same compound?
A: > 100 µM

Q: And the TGI [19]?
A: > 100 µM

Q: And the TGI [20]?
A: > 100 µM

Q: And the TGI [21]?
A: > 100 µM

Q: What about the TGI [58] of the same compound?
A: > 100 µM

Q: And the TGI [23]?
A: > 100 µM

Q: What about the TGI [24] of the same compound?
A: > 100 µM

Q: What about the TGI [25] of the same compound?
A: > 100 µM

Q: What about the TGI [27] of the same compound?
A: > 100 µM

Q: What about the TGI [28] of the same compound?
A: > 100 µM

Q: What about the TGI [29] of the same compound?
A: > 100 µM

Q: What about the TGI [30] of the same compound?
A: > 100 µM

Q: And the TGI [31]?
A: > 100 µM

Q: What about the TGI [32] of the same compound?
A: > 100 µM

Q: And the TGI [33]?
A: > 100 µM

Q: What about the TGI [34] of the same compound?
A: > 100 µM

Q: And the TGI [35]?
A: > 100 µM

Q: And the TGI [36]?
A: > 100 µM

Q: And the TGI [38]?
A: > 100 µM

Q: What about the TGI [59] of the same compound?
A: > 100 µM

Q: What about the TGI [39] of the same compound?
A: > 100 µM

Q: And the TGI [40]?
A: > 100 µM

Q: What about the TGI [41] of the same compound?
A: > 100 µM

Q: What about the TGI [42] of the same compound?
A: > 100 µM

Q: And the TGI [43]?
A: > 100 µM

Q: And the TGI [44]?
A: > 100 µM

Q: And the TGI [45]?
A: > 100 µM

Q: What about the TGI [46] of the same compound?
A: > 100 µM

Q: And the TGI [47]?
A: > 100 µM

Q: And the TGI [48]?
A: > 100 µM

Q: What about the TGI [49] of the same compound?
A: > 100 µM

Q: And the TGI [50]?
A: > 100 µM

Q: And the TGI [51]?
A: > 100 µM

Q: And the TGI [52]?
A: > 100 µM

Q: What about the TGI [53] of the same compound?
A: > 100 µM

Q: What about the TGI [54] of the same compound?
A: > 100 µM

Q: And the TGI [55]?
A: > 100 µM

Q: What about the TGI [56] of the same compound?
A: > 100 µM

Q: And the TGI [57]?
A: > 100 µM
